Columns and labels:
[1] = molecular target: human recombinant LPA1 Lysophospholipid receptor (Homo sapiens, UniProt Q92633); assay: Calcium flux assay using FLIPR, LPA1 antagonist activity; assay type: cell-based; settings: for IC50: ChemiScreen Calcium-optimized stable cell line, antagonist mode, inhibition of agonist-induced calcium flux
Description: (§1) Calcium Flux Assay Using Fluorometric Imaging Plate Reader (FLIPR)
Cell Culture Conditions: The ChemiScreen Calcium-optimized stable cell line containing the human recombinant LPA1 Lysophospholipid receptor was purchased from Chemicon International, Inc./Millipore. The cells were cultured in DMEM-high glucose supplemented with 10% fetal bovine serum, 2 mM glutamine, 100 U/mL penicillin/100 μg/mL streptomycin, 1× non-essential amino acids, 10 mM HEPES and 0.25 mg/mL Geneticin. Cells were harvested with trypsin-EDTA and counted using ViaCount reagent. The cell suspension volume was adjusted to 2.0×10^5 cells/mL with complete growth media. Aliquots of 50 μL were dispensed into 384 well black/clear tissue culture treated plates (BD) and the microplates were placed in a 37° C. incubator overnight. The following day plates were used in the assay.
(§2) Dye Loading and Assay: Loading Buffer (FLIPR Calcium-4, Molecular Devices) was prepared by dissolving the contents of one bottle into 100 mL Hank's Balanced Salt Solution containing 20 mM HEPES and 2.5 mM probenecid. Plates were loaded onto Biotek plate washer and growth media was removed and replaced with 20 μL of Hank's Balanced Salt Solution containing 20 mM HEPES and 2.5 mM probenecid, followed by 25 μL of Loading Buffer. The plates were then incubated for 30 minutes at 37° C.
During the incubation, test compounds were prepared by adding 90 μL of HBSS/20 mM HEPES/0.1% BSA buffer to 2 μL of serially diluted compounds. To prepare serial dilutions, 10 mM stocks of compounds were prepared in 100% DMSO.
After incubation, both the cell and “assay” plates were brought to the FLIPR and 20 μL of the diluted compounds were transferred to the cell plates by the FLIPR. Compound addition was monitored by FLIPR to detect any agonist activity of the compounds. Plates were then incubated for 30 minutes at room temperature protected from light. […] During the assay, fluorescence readings were taken simultaneously from all 384 wells of the cell plate every 1.5 seconds. Five readings were taken to establish a stable baseline, then 20 μL of sample was rapidly (30 μL/sec) and simultaneously added to each well of the cell plate. The fluorescence was continuously monitored before, during and after sample addition for a total elapsed time of 100 seconds. Responses (increase in peak fluorescence) in each well following agonist addition was determined. The initial fluorescence reading from each well, prior to ligand stimulation, was used as zero baseline value for the data from that well. The responses were expressed as % inhibition of the buffer control.

LPA3 = molecular target: T1, LPA3 (Homo sapiens, UniProt Q9UBY5); assay: Calcium flux assay using FLIPR, LPA3 antagonist activity; assay type: cell-based; settings: for IC50: antagonist activity
T1 sequence (Q9UBY5 1-353): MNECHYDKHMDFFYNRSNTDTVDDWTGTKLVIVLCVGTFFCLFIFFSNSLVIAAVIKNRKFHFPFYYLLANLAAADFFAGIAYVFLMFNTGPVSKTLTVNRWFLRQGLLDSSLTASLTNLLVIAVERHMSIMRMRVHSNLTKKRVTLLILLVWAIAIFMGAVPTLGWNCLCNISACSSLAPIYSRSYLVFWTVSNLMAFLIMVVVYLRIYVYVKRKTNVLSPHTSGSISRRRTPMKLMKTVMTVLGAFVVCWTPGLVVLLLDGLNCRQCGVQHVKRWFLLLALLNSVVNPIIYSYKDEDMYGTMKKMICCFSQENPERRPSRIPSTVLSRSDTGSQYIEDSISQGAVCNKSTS
Description: as §1, §2
During the incubation, test compounds were prepared by adding 90 μL of HBSS/20 mM HEPES/0.1% BSA buffer to 2 μL of serially diluted compounds. To prepare serial dilutions, 10 mM stocks of compounds were prepared in 100% DMSO. The compound dilution plate was set up as follows: well #1 received 29 μL of stock compound and 31 μL DMSO; wells 2-10 received 40 μL of DMSO; mixed and transferred 20 μL of solution from well #1 into well #2; continued with 1:3 serial dilutions out 10 steps; transferred 2 μL of diluted compound into duplicate wells of 384 well “assay plate” and then added the 90 μL of buffer.
After incubation, both the cell and “assay” plates were brought to the FLIPR and 20 μL of the diluted compounds were transferred to the cell plates by the FLIPR. Compound addition was monitored by FLIPR to detect any agonist activity of the compounds. Plates were then incubated for 30 minutes at room temperature protected from light. After the incubation, plates were returned to the FLIPR and 20 μL of 4.5× concentrated agonist was added to the cell plates. During the assay, fluorescence readings were taken simultaneously from all 384 wells of the cell plate every 1.5 seconds. Five readings were taken to establish a stable baseline, then 20 μL of sample was rapidly (30 μL/sec) and simultaneously added to each well of the cell plate. The fluorescence was continuously monitored before, during and after sample addition for a total elapsed time of 100 seconds. Responses (increase in peak fluorescence) in each well following agonist addition was determined. The initial fluorescence reading from each well, prior to ligand stimulation, was used as zero baseline value for the data from that well. The responses were expressed as % inhibition of the buffer control.

Sequence of human recombinant LPA1 Lysophospholipid receptor (Q92633 whole entry): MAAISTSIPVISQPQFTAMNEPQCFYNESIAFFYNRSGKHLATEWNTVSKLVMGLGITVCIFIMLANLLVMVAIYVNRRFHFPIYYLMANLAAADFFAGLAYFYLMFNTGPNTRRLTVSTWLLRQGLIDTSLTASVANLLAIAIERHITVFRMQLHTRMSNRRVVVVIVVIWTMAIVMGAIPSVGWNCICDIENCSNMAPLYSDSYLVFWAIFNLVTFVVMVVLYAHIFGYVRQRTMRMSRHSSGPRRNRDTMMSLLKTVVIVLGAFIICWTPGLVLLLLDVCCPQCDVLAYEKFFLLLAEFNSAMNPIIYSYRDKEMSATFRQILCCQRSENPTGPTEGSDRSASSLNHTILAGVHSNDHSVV

SMILES: Cc1nnn(-c2ccc(-c3ccc(CC(=O)O)cc3)cc2)c1NC(=O)O[C@H](C)c1ccccc1 [Example 2, {4′-[4-Methyl-5-((R)-1-phenyl-ethoxycarbonylamino)-[1,2,3]triazol-1-yl]-biphenyl-4-yl}-acetic acid]
- inhibition at 30 µM [1]: 40%
- IC50 [1]: > 30 µM
- IC50 (LPA3): > 30 µM

SMILES: Cc1nnn(-c2ccc(C3CCC(CC(=O)O)CC3)cc2)c1NC(=O)O[C@H](C)c1ccccc1 (stereo partly drawn) [Example 34, (R)-2-(4-(4-(4-Methyl-5-((1-phenylethoxy)carbonylamino)-1H-1,2,3-triazol-1-yl)phenyl)cyclohexyl)acetic acid]
- IC50 [1]: 9.48 µM
- IC50 (LPA3): > 30 µM

SMILES: C[C@@H](OC(=O)Nc1cnnn1-c1ccc(-c2ccc(CC(=O)O)cc2)cc1)c1ccccc1 [Example 22, {4′-[5-((R)-1-Phenyl-ethoxycarbonylamino)-[1,2,3]triazol-1-yl]-biphenyl-4-yl}-acetic acid]
- IC50 [1]: > 30 µM
- IC50 (LPA3): > 30 µM

SMILES: C[C@@H](OC(=O)Nc1nncn1-c1ccc(-c2ccc(C3(C(=O)O)CC3)cc2)cc1)c1ccccc1 [Example 31, 1-{4′-[3-((R)-1-Phenyl-ethoxycarbonylamino)-[1,2,4]triazol-4-yl]-biphenyl-4-yl}-cyclopropanecarboxylic acid]
- inhibition at 30 µM [1]: 11%
- IC50 [1]: > 30 µM
- IC50 (LPA3): > 30 µM

SMILES: Cc1nnn(-c2ccc(-c3ccccc3)cc2)c1NC(=O)O[C@H](C)c1ccccc1 [Example 27, (3-Biphenyl-4-yl-5-methyl-3H-[1,2,3]triazol-4-yl)-carbamic acid (R)-1-phenyl-ethyl ester]
- IC50 [1]: > 30 µM
- IC50 (LPA3): > 30 µM

SMILES: Cc1nnn(-c2ccc(-c3ccc(C4(C(=O)O)CC4)cc3)cc2)c1NC(=O)O[C@H](C)c1ccccc1 [Example 1, 1-{4′-[4-Methyl-5-((R)-1-phenyl-ethoxycarbonylamino)-[1,2,3]triazol-1-yl]-biphenyl-4-yl}-cyclopropanecarboxylic acid]
- IC50 [1]: 0.025 µM
- IC50 (LPA3): > 30 µM

SMILES: Cc1nnn(-c2ccc(-c3ccc(C4(C(=O)O)CC4)cc3)cc2)c1NC(=O)O[C@@H]1CCc2ccccc21 [Example 8, 1-{4′-[5-((R)-Indan-1-yloxycarbonylamino)-4-methyl-[1,2,3]triazol-1-yl]-biphenyl-4-yl}-cyclopropanecarboxylic acid]
- IC50 [1]: > 30 µM
- IC50 (LPA3): > 30 µM

SMILES: Cc1nnn(-c2ccc(-c3ccc(C4(C(=O)NS(C)(=O)=O)CC4)cc3)cc2)c1NC(=O)O[C@H](C)c1cccc(C(F)(F)F)c1 [Example 35, {3-[4′-(1-Methanesulfonylaminocarbonyl-cyclopropyl)-biphenyl-4-yl]-5-methyl-3H[1,2,3]triazol-4-yl}-carbamic acid (R)-1-(3-trifluoromethyl-phenyl)-ethyl ester]
- IC50 [1]: 4.53 µM
- IC50 (LPA3): 5.74 µM

SMILES: Cc1nnn(-c2ccc(-c3cccc(C4(C(=O)O)CC4)c3)cc2)c1NC(=O)O[C@H](C)c1ccccc1 [Example 24, (R)-1-(4′-(4-Methyl-5-((1-phenylethoxy)carbonylamino)-1H-1,2,3-triazol-1-yl)biphenyl-3-yl)cyclopropanecarboxylic acid]
- IC50 [1]: > 30 µM
- IC50 (LPA3): > 30 µM

SMILES: C[C@@H](OC(=O)Nc1cnnn1-c1ccc(-c2ccc(C3(C(=O)O)CC3)cc2)cc1)c1ccccc1 [Example 21, 1-{4′-[5-((R)-1-Phenyl-ethoxycarbonylamino)-[1,2,3]triazol-1-yl]-biphenyl-4-yl}-cyclopropanecarboxylic acid]
- IC50 [1]: 0.036 µM
- inhibition at 30 µM (LPA3): 22%
- IC50 (LPA3): > 30 µM

SMILES: Cc1nnn(-c2ccc(-c3ccc(C4(C(=O)O)CC4)cc3)cc2)c1NC(=O)O[C@H](C)c1cccc(C(F)(F)F)c1 [Example 7, 1-(4′-{4-Methyl-5-[(R)-1-(3-trifluoromethyl-phenyl)-ethoxycarbonylamino]-[1,2,3]triazol-1-yl}-biphenyl-4-yl)-cyclopropanecarboxylic acid]
- IC50 [1]: 0.174 µM
- IC50 (LPA3): 6.86 µM

SMILES: Cc1nnn(-c2ccc(-c3ccc(C4(C(=O)O)CC4)c(F)c3)cc2)c1NC(=O)O[C@H](C)c1ccccc1 [Example 15, 1-{3-Fluoro-4′-[4-methyl-5-((R)-1-phenyl-ethoxycarbonylamino)-[1,2,3]triazol-1-yl]-biphenyl-4-yl}-cyclopropanecarboxylic acid]
- IC50 [1]: 0.022 µM
- inhibition at 30 µM (LPA3): 46.3%

SMILES: COc1cc(-c2ccc(C3(C(=O)O)CC3)cc2)ccc1-n1nnc(C)c1NC(=O)O[C@H](C)c1ccccc1 [Example 16, 1-{3′-Methoxy-4′-[4-methyl-5-((R)-1-phenyl-ethoxycarbonylamino)-[1,2,3]triazol-1-yl]-biphenyl-4-yl}-cyclopropanecarboxylic acid]
- IC50 [1]: 0.245 µM
- IC50 (LPA3): > 30 µM

SMILES: Cc1c(NC(=O)O[C@H](C)c2ccccc2)nnn1-c1ccc(-c2ccc(C3(C(=O)O)CC3)cc2)cc1 [Example 3, 1-{4′-[5-Methyl-4-((R)-1-phenyl-ethoxycarbonylamino)-[1,2,3]triazol-1-yl]-biphenyl-4-yl}-cyclopropanecarboxylic acid]
- IC50 [1]: > 30 µM
- IC50 (LPA3): > 30 µM

SMILES: CCc1nnn(-c2ccc(-c3ccc(C4(C(=O)O)CC4)cc3)cc2)c1NC(=O)O[C@H](C)c1ccccc1 [Example 17, 1-{4′-[4-Ethyl-5-((R)-1-phenyl-ethoxycarbonylamino)-[1,2,3]triazol-1-yl]-biphenyl-4-yl}-cyclopropanecarboxylic acid]
- IC50 [1]: 0.043 µM
- inhibition at 30 µM (LPA3): 63.7%
- IC50 (LPA3): 21.7 µM

SMILES: Cc1nnn(-c2ccc(-c3ccc(C4(C(=O)O)CC4)cc3)cc2)c1NC(=O)OC(C)C1CCC1 (stereo not shown) [Example 13, 1-{4′-[5-(1-Cyclobutyl-ethoxycarbonylamino)-4-methyl-[1,2,3]triazol-1-yl]-biphenyl-4-yl}-cyclopropanecarboxylic acid]
- IC50 [1]: 0.161 µM
- IC50 (LPA3): > 30 µM

SMILES: Cc1nnn(-c2ccc(-c3ccc(C4(C(=O)O)CC4)cc3)cc2)c1NC(=O)O[C@H](C)C(C)C [Example 9, 1-{4′-[5-((R)-1,2-Dimethyl-propoxycarbonylamino)-4-methyl-[1,2,3]triazol-1-yl]-biphenyl-4-yl}-cyclopropanecarboxylic acid]
- IC50 [1]: 0.217 µM
- IC50 (LPA3): > 30 µM

SMILES: Cc1nnn(-c2ccc(-c3ccc(C4(c5nnn[nH]5)CC4)cc3)cc2)c1NC(=O)O[C@H](C)c1ccccc1 [Example 29, (R)-1-Phenyl-ethyl-1-(4′-(1-(1H-tetrazol-5-yl)cyclopropyl)biphenyl-4-yl)-4-methyl-1H-1,2,3-triazol-5-ylcarbamate]
- IC50 (LPA3): > 30 µM

SMILES: Cc1nnn(-c2ccc(-c3ccc(C4(C(=O)O)CC4)cc3)cc2)c1NC(=O)O[C@H](C)c1ccccc1F [Example 5, 1-(4′-{5-[(R)-1-(2-Fluoro-phenyl)-ethoxycarbonylamino]-4-methyl-[1,2,3]triazol-1-yl}-biphenyl-4-yl)-cyclopropanecarboxylic acid]
- IC50 (LPA3): > 30 µM

Reference: US20150133512A1, “N-ARYLTRIAZOLE COMPOUNDS AS LPAR ANTAGONISTS” (Hoffmann-La Roche Inc,, priority 2012, published 2015)
